Columns and labels:
[1] = molecular target: T1, UGT 1A1 (Homo sapiens, UniProt P22309); assay: Inhibition of recombinant UGT 1A1 supersomes by diclofenac, probe compound 3138; assay type: biochemical; conditions: 0.1 mg/mL Supersomes, 20 μM compound 3138, 90 minutes at 37° C.
T1 construct: purchased BD Gentest; host or cells: insect cells (microsomes)
T1 sequence (P22309 26-533): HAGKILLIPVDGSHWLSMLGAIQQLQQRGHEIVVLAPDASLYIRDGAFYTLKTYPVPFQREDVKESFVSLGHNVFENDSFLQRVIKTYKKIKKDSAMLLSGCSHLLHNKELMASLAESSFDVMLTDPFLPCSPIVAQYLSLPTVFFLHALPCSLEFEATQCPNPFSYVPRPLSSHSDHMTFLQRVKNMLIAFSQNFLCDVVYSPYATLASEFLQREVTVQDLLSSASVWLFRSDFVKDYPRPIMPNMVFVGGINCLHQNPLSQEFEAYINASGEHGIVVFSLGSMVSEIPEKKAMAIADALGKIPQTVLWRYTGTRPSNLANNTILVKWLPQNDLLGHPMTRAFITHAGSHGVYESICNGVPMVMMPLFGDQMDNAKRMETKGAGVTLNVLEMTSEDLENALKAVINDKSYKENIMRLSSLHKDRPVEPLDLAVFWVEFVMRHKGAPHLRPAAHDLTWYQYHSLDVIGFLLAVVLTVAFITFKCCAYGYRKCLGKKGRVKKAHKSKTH
Protocol: The invention includes a method of determining activity of the uridine 5′-diphospho-glucuronosyltransferase (UDP-glucuronosyltransferase, or UGT) family enzymes in vitro. […] Following the UGT enzyme reaction, an equal volume of P450-Glo Luciferin Detection Reagent (Promega) containing 15-30 mM D-cysteine-HCl.H2O (Sigma) was added and the plate was mixed and incubated at room temperature, typically for 20-30 minutes. P450-Glo Luciferin Detection Reagent can be prepared by dissolving a vial of Promega Luciferin Detection Reagent (Promega Part #V859B) with a vial of Promega P450-Glo Buffer (Promega Part #V865B).
(§1) During this incubation, the cysteine reacts with the cyanobenzathiozole substrate to yield a D-luciferin derivative. […] Therefore, activity of the UGT enzyme can be measured by analyzing the difference (lower or no output) in relative light units (RLU) of a sample in which glucuronidation occurs compared to a sample that was run under the same conditions with no added UDPGA cofactor.

[2] = test system: UGT activity in human liver microsomes (HLM); assay: Inhibition of UGT activity in human liver microsomes by diclofenac (titration), probe compound 3138; assay type: biochemical; conditions: 0.1 mg/mL HLM, 50 μM compound 3138, 15 minutes at 37° C.; read-out: EC50, inhibition of HLM utilization of compound 3138
Protocol: The invention includes a method of determining activity of the uridine 5′-diphospho-glucuronosyltransferase (UDP-glucuronosyltransferase, or UGT) family enzymes in vitro. Briefly, UGT enzymes from overexpressed insect microsomes (Supersomes™, BD Gentest™) or animal tissue microsomes (Xenotech, BD Gentest™) were incubated with a cyanobenzothiazole substrate of the invention and the cofactor UDP-glucuronic acid (UDPGA) at 37° C. in buffer at physiological pH containing MgCl2 and alamethicin (typically, 50 mM TES, pH 7.5, 8 mM MgCl2, 4 mM UDPGA (Sigma) and 25 μg/mL alamethicin (Sigma)). […]
as §1
All reactions contained 50 mM TES, pH 7.5, 8 mM MgCl2, 25 μg/mL alamethicin, 0.1 mg/mL HLM, and 50 μM compound 3138, plus or minus 4 mM UDPGA. […] After 20 minutes at room temperature, RLU were read on a luminometer.

[3] = test system: UGT isozymes; conditions: cited from earlier work

## O=C(O)Cc1ccccc1Nc1c(Cl)cccc1Cl [Diclofenac]
[1]
  IC50: 232 µM
[2]
  EC50: 60 µM
[3]; isozymes currently reported in the literature to be modulated by the compound
  Isozymes Modulated: Inhibits most isozymes
[3]; literature report
  inhibition of UGT isozymes as reported in the literature: reported to inhibit UGT 1A1, 1A3, 1A6, 1A7, 1A8, 1A9, 1A10, 2B7, 2B15, and 2B17

From patent US8551721B2, “Bioluminescent detection of cyanohydroxy benzothiazole compounds” (Promega Corporation, priority 2008, dated 2013)
